Data on one substance can be found in patent publication US9585933B2, “Therapeutic use of peptide inhibitors of NADPH oxidase; aerosolization as a delivery mechanism” (University of Pittsburgh—Of the Commonwealth System of …, priority 2011, dated 2017).

Where no end group is shown, it is not given here.

Assay [1] addresses T1, Nox2 oxidase (COS-Nox2 lysate: Nox2, p22phox, p47phox, p67phox) (Homo sapiens, UniProt P14598).
T1 construct: host or cells: COS 7 cells, stably transfected; cell lysate used
T1 sequence (P14598 1-390): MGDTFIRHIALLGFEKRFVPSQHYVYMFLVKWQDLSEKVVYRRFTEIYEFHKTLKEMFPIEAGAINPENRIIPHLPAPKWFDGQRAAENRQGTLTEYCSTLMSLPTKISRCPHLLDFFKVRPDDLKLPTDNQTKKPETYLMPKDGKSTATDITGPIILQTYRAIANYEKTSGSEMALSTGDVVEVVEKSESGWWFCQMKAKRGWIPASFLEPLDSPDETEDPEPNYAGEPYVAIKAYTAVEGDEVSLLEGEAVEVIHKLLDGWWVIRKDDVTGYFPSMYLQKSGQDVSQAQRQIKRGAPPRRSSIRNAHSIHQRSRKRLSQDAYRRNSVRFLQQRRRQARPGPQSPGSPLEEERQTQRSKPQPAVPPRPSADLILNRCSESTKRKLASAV
Description: Cell-free SOD-inhibitable cytochrome c reduction assay, O2- production in COS-Nox2 lysates. It counts as biochemical. As to conditions: for rate of O2- generation, SOD-inhibitable reduction of cytochrome c: 0 μM control 1.33±0.1. The protocol: (§1) To test this hypothesis, the inhibitory activity of Nox2ds was assessed in cell-free assays using reconstituted systems expressing either Nox1, 2 or 4 oxidase. Nox 2 oxidase was recapitulated by stably transfecting COS 7 cells with Nox2, p22phox, p47phox, and p67phox (aka COS-Nox2). Nox1 oxidase was obtained by transfecting COS 7 cells with Nox1, p22phox, NOXO1 and NOXA1 (COS-Nox1), and Nox 4 oxidase was regenerated by transfection of COS 7 cells with Nox4 and p22phox. […] Our new data support selectivity of Nox2ds peptide in differentiating the contribution of Nox2 vs. Nox1 and Nox4 NADPH oxidase and its potential clinical use in ameliorating cardiopulmonary diseases.
COS-Nox2: COS 7 cells transfected with p22^phox, Nox2, p47^phox and p67^phox (M. Dinauer, Indiana University). (Price M O, McPhail L C, Lambeth J D, Han C H, Knaus U G, Dinauer M C. Blood. 2002 Apr. 15; 99(8):2653-61.)
Superoxide (O2^−) production was measured in COS-Nox1 and COS-Nox2 lysates by determining the rate of O2^− dismutase (SOD) inhibitable cytochrome c reduction and by electron paramagnetic resonance (EPR).
COS-Nox2, COS-Nox1/NOXO1/NOXA1, and COS-22 cells were suspended to a concentration of 5×10^7 cells/ml in ice-cold disruption buffer (8 mM potassium, sodium phosphate buffer, pH 7.0, 131 mM NaCl, 340 mM sucrose, 2 mM NaN3, 5 mM MgCl2, 1 mM EGTA, 1 mM EDTA, and protease inhibitor cocktail). The cells were lysed by five freeze/thaw cycles and passed through a 30-gauge needle five times to further lyse the cells. Cell disruption was confirmed by phase-contrast microscopy. The cell lysate was centrifuged at 1000 g for 10 min at 4° C. to remove unbroken cells, nuclei, and debris. Throughout all these procedures, extreme care was taken to maintain the lysate at a temperature close to 0° C. Superoxide production was calculated from the initial linear rate (over 10 min) of SOD-inhibitable cytochrome c reduction quantified at 550 nm using the extinction coefficient of 21.1 mM-1 cm-1 (Biotek Synergy 4 hybrid multimode microplate reader). The oxidase assay buffer consisted of 65 mM sodium phosphate buffer (pH 7.0), 1 mM EGTA, 10 μM FAD, 1 mM MgCl2, 2 mM NaN3, and 0.2 mM cytochrome c. The components of the cell-free system were added in the following order: oxidase assay buffer, cell lysate (5×10^5 cell equivalents/well), and Nox2ds/Scrmb Nox2ds peptides at a final concentration of 0.1, 0.3, 1.0, 3.0, and 10 μM. The plates were placed on an orbital shaker to mix contents for 5 min at 120 movements/min at room temperature. LIDS, an established lipid activator of phagocyte cell-free systems, was added at a concentration of 130 μM, and O2^− production was initiated by the addition of 180 μM NADPH. The concentration of Nox2ds peptide that caused 50% inhibition of O2^− production (IC50) in COS-Nox2 cell lysates was calculated by Prism 5 (GraphPad Software, La Jolla, Calif., USA).
Cytochrome C Assay. FIG. 3A. Rate of O2^− production in COS-Nox2 lysates pretreated with Nox2ds or scrambled control (Scrmb Nox2ds). O2^− production was initiated by the addition of NADPH and measured by the SOD-inhibitable cytochrome c reduction for 10 min.

The target in assay [2] is T2, Nox2 oxidase (COS-Nox2 lysate) (Homo sapiens, UniProt P14598).
T2 construct: host or cells: COS 7 cells, stably transfected; cell lysate used
T2 sequence (P14598 1-390): T1 sequence (P14598 1-390)
Kind of assay: EPR with spin probe CMH, O2- production in COS-Nox2 lysates. The assay is classed as biochemical. The settings on record: 10 μM peptide, vehicle 36330±2658. On the procedure:
as §1
The spin probe 1-hydroxy-3-methoxycarbonyl-2,2,5,5-tetramethylpyrrolidine hydrochloride (CMH; Alexis Corp., San Diego, Calif., USA) was used to examine O2^− production in COS-Nox2 cell lysates using a Bruker eScan table-top EPR spectrometer (Bruker Biospin, USA). Superoxide production was measured in oxidase assay buffer (65 mM sodium phosphate buffer, pH 7.0, 1 mM EGTA, 10 μM FAD, 1 mM MgCl2, 2 mM NaN3) supplemented with 50 μM CMH. […] Analyses of the EPR spectra peak heights were used to quantify the amount of O2^− produced by the lysates and were compared with buffer-only control spectra or spectra in the presence of 10 μM Nox2ds, 10 μM Scrmb Nox2ds, or 150 U/ml SOD. […]

Take CSTRVRRQL-NH2 [Nox2ds, CSTRVRRQL]: the “rate of O2- generation, SOD-inhibitable reduction of cytochrome c” value was 1.36±0.1 nmol O2^−/min/10^7 lysate-cell equivalents in assay [1] (0.1 μM peptide); 1.05±0.2 nmol O2^−/min/10^7 lysate-cell equivalents in assay [1] (0.3 μM peptide); 0.83±0.1 nmol O2^−/min/10^7 lysate-cell equivalents in assay [1] (1 μM peptide); 0.82±0.1 nmol O2^−/min/10^7 lysate-cell equivalents in assay [1] (3 μM peptide); 0.54±0.1 nmol O2^−/min/10^7 lysate-cell equivalents in assay [1] (10 μM peptide). Further, the “inhibition of Nox2-oxidase O2- production (in words)” value in assay [1] (cytochrome c assay) is “concentration-dependently inhibited”. Also, the “CM radical intensity (EPR, O2- production)” value in assay [2] is on record as 18360±2666.
